Source: patent US11246308B2, “Ice-free preservation of large volume tissue samples for viable, functional tissue banking” (TISSUE TESTING TECHNOLOGIES LLC, priority 2016, dated 2022)

Assays:
[1] = ice formation in VS55 supplemented with sugars stored at −80 C (FIG. 7); type: physicochemical; conditions: for sugar concentrations in VS55 that demonstrated ice (white) formation: 24 hours at −80° C.
Procedure: In this experiment 30 mL samples of VS55 with increasing concentrations of sugars were placed in 50 mL plastic tubes and stored in a −80 C mechanical storage freezer for 7 days. The tubes were checked daily for ice formation. […] After one day 0.4 to 0.6M trehalose and 0.5-0.6M sucrose were free of ice, while after 7 days 0.5-0.6M trehalose and 0.6M sucrose groups were free of ice. Lower concentrations of these sugars may still be used for ice-free vitrification but more rapid cooling and warming will be needed because the risk of ice formation will be greater and nanowarming rather than convection warming may be needed. Specifically, FIG. 7 is photograph illustrating the ice formation in VS55 supplemented with sugars at −80° C.: Top left: VS55 with 0-0.6M sucrose at 24 hours; Top right: VS55 with 0-0.6M trehalose at 24 hours. […] Higher concentrations were clear without ice. Bottom left: VS55 with 0-0.6M sucrose at 7 days; and Bottom right: VS55 with 0-0.6M trehalose at 7 days. After a week at −80° C. the highest concentrations of sugars are still free of ice.

[2] = system: heart valve tissues (pulmonary artery, leaflet and cardiac muscle); assay: alamarBlue metabolic activity of heart valve tissues vitrified in 4 mL of solution (FIG. 1); type: cell-based; conditions: for leaflet viability: 4 mL; for leaflet viability / tissue viability: p<0.05; for post-vitrification viability: 0.6M sugar in DP6, VS49 and VS55; for tissue viability: trehalose and sucrose supplementation of vitrification formulations (VS49, DP6, VS55), compared with no additive controls, N=6
Procedure: (§1) In the following ice-free cryopreservation formulation supplementation experiments, disaccharides (trehalose and sucrose) are added to various vitrification formulations (VS49, DP6, and VS55) in the amounts shown in FIG. 1 and compared to a solution (without trehalose and/or sucrose) to access the effectiveness at inhibiting ice formation in various tissues.
Data shown in % of control VS55 results performed with the final cryoprotectant concentration added at 4° C., N=6, *p<0.05 by ANOVA or #T-test compared with no additive controls.
In this experiment, addition of either 600 mM trehalose or sucrose to VS49, DP6 and VS55 formulations was compared. The tissues were vitrified in 4 mL of solution. Trehalose supplementation increased leaflet viability in VS49 and VS55. Sucrose supplementation increased leaflet viability in all three formulations. […] This led to plans to test DP6 with sugars more thoroughly in later experiments. Repetitive experiments were performed using sucrose supplemented VS55 and obtained outcomes similar to those for supplemented VS55 shown here.
Bonafide excess heart valves or blood vessels were obtained from animals employed in other IACUC approved research studies or from a food processing plant post-mortem. The tissues were dissected, rinsed and placed in sterile cups with ice-cold tissue culture medium containing antibiotics overnight and then allocated for in vitro studies. The heart valve tissues in FIG. 1 each consisted of a piece of tissue consisting of pulmonary artery, leaflet and cardiac muscle. They were separated and individually assayed for viability using an assay that assesses metabolic activity that is described below.
(§2) Tissues were gradually infiltrated with VS55 consisting of 3.10 M DMSO, 3.10M formamide, and 2.21 M propylene glycol in Euro-Collins solution at 4° C. using methods previously described for blood vessel vitrification, a dilution of VS55 to VS49 or DP6 consisting of 3 M DMSO, 3 M propylene glycol. Precooled dilute vitrification solutions (4° C.) are added in five sequential 15-min steps of increasing concentration on ice. The last cryoprotectant concentration with mNPs was added in a final sixth addition step in either precooled −10° C. or 4° C. full strength vitrification solution and kept in a −10° C. bath for 15 minutes or at 4° C. on ice in plastic tubes. The samples were then cooled in two steps, first rapid cooling to −100° C. by placing in a precooled 2-methylbutane bath at −135° C. and then by transfer to vapor phase nitrogen storage for slower cooling to below −135° C. Finally, the samples were stored below −130° C. in vapor phase nitrogen for at least 24 h before testing.
(§3) Warming was performed by either convection warming or nanowarming. Convection warming is a two-stage process including slow warming to −100° C. and then as rapid as possible warming to melting. The slow warming rate is created by taking the sample to the top of the −135° C. freezer and the […] warming rate is generated by placing the plastic container in the mixture of 30% DMSO/H2O at room temperature. After rewarming, the vitrification solution was removed in a stepwise manner on ice to keep the tissues cold and minimize cytotoxicity due to the presence of residual cryoprotectants.
Metabolic Activity—An alamarBlue™ assay will be used to evaluate the metabolic activity of control and treated tissue samples. Tissues were incubated in 2 ml of DMEM+10% FBS culture medium for one hour to equilibrate followed by the addition of 20% AlamarBlue under standard cell culture conditions for 3 hours. AlamarBlue is a non-toxic fluorometric indicator based on detection of metabolic activity. Fluorescence was measured at an excitation wavelength of 544 nm and an emission wavelength of 590 nm. […] Control and experimental tissues were dried at the end of each experiment, weighed, and results expressed as relative fluorescence units (RFU)/mg tissue dry weight.

[3] = visible ice formation during cooling and rewarming, 1st set of experiments; type: physicochemical; conditions: for visible ice formation: 0.6M sugar in both DP6 and VS49 formulations; for ice formation during cooling and rewarming: in the presence of the sugar, with nanowarming
Procedure: as §1, §2, §3

sugar concentrations in VS55 that demonstrated ice (white) formation [1] [M]	sugar concentrations in VS55 free of ice ([1]; after 7 days at −80 C, 30 mL samples) [M]	visible ice formation [3]	ice formation during cooling and rewarming [3]	Structure (SMILES)	leaflet viability ([2]; 600 mM sucrose added to all three formulations (VS49, DP6, VS55))	post-vitrification viability [2]	tissue viability [2]	leaflet viability ([2]; 600 mM trehalose added to VS49 and VS55)
0 to 0.4	0.6	prevents visible ice formation	no ice formation	OC[C@H]1O[C@@](CO)(O[C@H]2O[C@H](CO)[C@@H](O)[C@H](O)[C@H]2O)[C@@H](O)[C@@H]1O [sucrose]	increased	increases	significant increases	
0 to 0.6		prevents visible ice formation	no ice formation	OC[C@H]1O[C@H](O[C@H]2O[C@H](CO)[C@@H](O)[C@H](O)[C@H]2O)[C@H](O)[C@@H](O)[C@@H]1O [trehalose]		increases	significant increases	increased
